Experiments:
Test in all cases: Antifungal broth microdilution (Example 13)
[1] = test system: Candida glabrata; type: cell-based; settings: for MIC0: complete inhibition; for MIC2: 50% inhibition
[2] = test system: Candida albicans; type: cell-based; settings: 24 hr; for MIC0: complete inhibition; for MIC2: 50% inhibition
[3] = test system: Candida krusei; type: cell-based; settings: for MIC0: complete inhibition; for MIC2: 50% inhibition
[4] = test system: Candida auris; type: cell-based; settings: for MIC0: complete inhibition; for MIC2: 50% inhibition
[5] = test system: Aspergillus spp.; type: cell-based, A. niger, A. terreus, A. fumigatus, A. flavus; settings: complete inhibition, comparator, time not stated
[6] = C. glabrata ATCC 90030, Susceptible
[7] = C. glabrata ATCC MYA-2950, Susceptible
[8] = C. glabrata MMX 7087, Susceptible
[9] = C. glabrata MMX 7103, CASP-R, MICA-R
[10] = C. glabrata MMX 7111, Susceptible
[11] = C. glabrata MMX 7285, CASP-R, MICA-R
[12] = C. glabrata MMX 7307, CASP-R, MICA-R, FLU-R
[13] = C. glabrata MMX 7549, Susceptible
[14] = C. albicans ATCC 90028, Susceptible
[15] = C. albicans ATCC 204276, MICA-R
[16] = C. albicans ATCC MYA-2732, FLU-R, VORI-I
[17] = C. albicans MMX 7053, Susceptible
[18] = C. albicans MMX 7067, FLU-R, VORI-R
[19] = C. albicans MMX 7403, Susceptible
[20] = C. albicans MMX 7424, CASP-R, MICA-R
[21] = C. albicans MMX 7430, Susceptible
[22] = C. albicans MMX 7445, FLU-R, VORI-R
[23] = C. krusei ATCC 14243, Susceptible
[24] = C. krusei ATCC 96685, Susceptible
[25] = C. krusei MMX 7125, Susceptible
[26] = C. krusei MMX 7128, Susceptible
[27] = C. krusei MMX 7141, Susceptible
[28] = C. krusei MMX 7155, Susceptible
[29] = C. krusei MMX 7563, Susceptible
[30] = C. krusei MMX 9878, MICA-I, VORI-I
[31] = C. auris MMX 9863, FLU-R, VORI-R
[32] = C. auris MMX 9864, FLU-R, VORI-R
[33] = C. auris MMX 9865, FLU-R, VORI-R
[34] = C. auris MMX 9866, FLU-R, VORI-R
[35] = C. auris MMX 9867, FLU-R, VORI-R
[36] = C. auris MMX 9868, FLU-R, VORI-R
[37] = C. auris MMX 9869, FLU-R, VORI-R
[38] = C. auris MMX 9870, FLU-R, VORI-R

Structure (SMILES): C[C@@H]1[C@H](O)[C@@H](C)/C=C/C=C/C=C/C=C/C=C/C=C/C=C/[C@H](O[C@@H]2O[C@H](C)[C@@H](O)[C@H](N)[C@@H]2O)C[C@@H]2O[C@](O)(C[C@@H](O)C[C@@H](O)[C@H](O)CC[C@@H](O)C[C@@H](O)CC(=O)O[C@H]1C)C[C@H](O)[C@H]2C(=O)O [AMP B]
- MIC0 [1, 6]: 0.25 µg/mL
- MIC0 [1, 7]: 0.12 µg/mL
- MIC0 [1, 8]: 0.12 µg/mL
- MIC0 ([1]; C. glabrata MMX 7093, FLU-R): 0.25 µg/mL
- MIC0 ([1]; C. glabrata MMX 7101, FLU-R): 0.25 µg/mL
- MIC0 [1, 9]: 0.25 µg/mL
- MIC0 [1, 10]: 0.25 µg/mL
- MIC0 [1, 11]: 0.25 µg/mL
- MIC0 [1, 12]: 0.25 µg/mL
- MIC0 [1, 13]: 0.25 µg/mL
- MIC0 [2, 14]: 0.25 µg/mL
- MIC0 [2, 15]: 0.25 µg/mL
- MIC0 [2, 16]: 0.25 µg/mL
- MIC0 [2, 17]: 0.12 µg/mL
- MIC0 [2, 18]: 0.25 µg/mL
- MIC0 [2, 19]: 0.25 µg/mL
- MIC0 [2, 20]: 0.25 µg/mL
- MIC0 [2, 21]: 0.25 µg/mL
- MIC0 ([2]; C. albicans MMX 7437, FLU-I): 0.25 µg/mL
- MIC0 [2, 22]: 0.12 µg/mL
- MIC0 ([3]; C. krusei ATCC 6258, MICA-I): 0.5 µg/mL
- MIC0 [3, 23]: 0.25 µg/mL
- MIC0 [3, 24]: 0.5 µg/mL
- MIC0 [3, 25]: 0.5 µg/mL
- MIC0 [3, 26]: 0.5 µg/mL
- MIC0 [3, 27]: 0.25 µg/mL
- MIC0 ([3]; C. krusei MMX 7153, MICA-R): 0.5 µg/mL
- MIC0 [3, 28]: 0.25 µg/mL
- MIC0 [3, 29]: 0.5 µg/mL
- MIC0 [3, 30]: 0.5 µg/mL
- MIC0 ([4]; C. auris MMX 9862, Susceptible): 0.25 µg/mL
- MIC0 [4, 31]: 0.12 µg/mL
- MIC0 [4, 32]: 0.25 µg/mL
- MIC0 [4, 33]: 0.25 µg/mL
- MIC0 [4, 34]: 0.5 µg/mL
- MIC0 [4, 35]: 0.5 µg/mL
- MIC0 [4, 36]: 0.25 µg/mL
- MIC0 [4, 37]: 1 µg/mL
- MIC0 [4, 38]: 1 µg/mL
- MIC0 ([4]; C. auris MMX 9871, Susceptible): 1 µg/mL
- MIC0 ([5]; A. flavus ATCC 22546): 1 µg/mL
- MIC0 ([5]; A. flavus ATCC 204304): 1 µg/mL
- MIC0 ([5]; A. flavus MMX 7935): 1 µg/mL
- MIC0 ([5]; A. fumigatus ATCC 204305): 1 µg/mL
- MIC0 ([5]; A. fumigatus ATCC MYA-3626): 1 µg/mL
- MIC0 ([5]; A. fumigatus MMX 5934): 1 µg/mL
- MIC0 ([5]; A. fumigatus MMX 5938): 1 µg/mL
- MIC0 ([5]; A. fumigatus MMX 5939): 1 µg/mL
- MIC0 ([5]; A. niger ATCC 29508): 0.25 µg/mL
- MIC0 ([5]; A. terreus MMX 8229): 0.25 µg/mL

Structure (SMILES): C[C@@H](c1ncncc1F)[C@](O)(Cn1cncn1)c1ccc(F)cc1F [VORI]
- MIC2 [1, 6]: 0.12 µg/mL
- MIC2 [1, 7]: 0.12 µg/mL
- MIC2 [1, 8]: 0.03 µg/mL
- MIC2 ([1]; C. glabrata MMX 7093, FLU-R): 2 µg/mL
- MIC2 ([1]; C. glabrata MMX 7101, FLU-R): 2 µg/mL
- MIC2 [1, 9]: 0.12 µg/mL
- MIC2 [1, 10]: 0.06 µg/mL
- MIC2 [1, 11]: 1 µg/mL
- MIC2 [1, 12]: 4 µg/mL
- MIC2 [1, 13]: 0.06 µg/mL
- MIC2 [2, 14]: ≤0.008 µg/mL
- MIC2 [2, 15]: ≤0.008 µg/mL
- MIC2 [2, 16]: 0.5 µg/mL
- MIC2 [2, 17]: ≤0.008 µg/mL
- MIC2 [2, 18]: >8 µg/mL
- MIC2 [2, 19]: ≤0.008 µg/mL
- MIC2 [2, 20]: ≤0.008 µg/mL
- MIC2 [2, 21]: ≤0.008 µg/mL
- MIC2 ([2]; C. albicans MMX 7437, FLU-I): 0.12 µg/mL
- MIC2 [2, 22]: >8 µg/mL
- MIC2 ([3]; C. krusei ATCC 6258, MICA-I): 0.12 µg/mL
- MIC2 [3, 23]: 0.06 µg/mL
- MIC2 [3, 24]: 0.5 µg/mL
- MIC2 [3, 25]: 0.25 µg/mL
- MIC2 [3, 26]: 0.12 µg/mL
- MIC2 [3, 27]: 0.12 µg/mL
- MIC2 ([3]; C. krusei MMX 7153, MICA-R): 0.25 µg/mL
- MIC2 [3, 28]: 0.25 µg/mL
- MIC2 [3, 29]: 0.25 µg/mL
- MIC2 [3, 30]: 1 µg/mL
- MIC2 ([4]; C. auris MMX 9862, Susceptible): 0.03 µg/mL
- MIC2 [4, 31]: >8 µg/mL
- MIC2 [4, 32]: 7 µg/mL
- MIC2 [4, 33]: 8 µg/mL
- MIC2 [4, 34]: 8 µg/mL
- MIC2 [4, 35]: 8 µg/mL
- MIC2 [4, 36]: >8 µg/mL
- MIC2 [4, 37]: 2 µg/mL
- MIC2 [4, 38]: 4 µg/mL
- MIC2 ([4]; C. auris MMX 9871, Susceptible): 1 µg/mL
- MIC0 ([5]; A. flavus ATCC 22546): 1 µg/mL
- MIC0 ([5]; A. flavus ATCC 204304): 2 µg/mL
- MIC0 ([5]; A. flavus MMX 7935): 0.5 µg/mL
- MIC0 ([5]; A. fumigatus ATCC 204305): 0.5 µg/mL
- MIC0 ([5]; A. fumigatus ATCC MYA-3626): 0.5 µg/mL
- MIC0 ([5]; A. fumigatus MMX 5934): 0.25 µg/mL
- MIC0 ([5]; A. fumigatus MMX 5938): 0.25 µg/mL
- MIC0 ([5]; A. fumigatus MMX 5939): 7 µg/mL
- MIC0 ([5]; A. niger ATCC 29508): 0.5 µg/mL
- MIC0 ([5]; A. terreus MMX 8229): 0.25 µg/mL

Source: patent US20230124862A1, “BISMUTH THIOL COMPOUNDS AND COMPOSITIONS AND METHODS OF TREATING MICROBIAL CO-INFECTIONS” (Microbion Corporation, priority 2020, published 2023)
